# According to publication PMC5391474, “Investigation of the Role of Protein Kinase D in Human Rhinovirus Replication” (Journal of Virology, 2017):
# Experiments:
# Test in all cases: biochemical
# Set-up in all cases: in vitro kinase selectivity panel, protein and lipid kinases, single concentration, ATP at Km
# Details in all cases: ATP at Km
# [1] = biological target: ALK(h) (Homo sapiens, UniProt Q9UM73)
# Method: (§1) CRT0066101 was described previously ([48]) and was purchased for this study from Tocris, with a purity of 99.9%. CRT0066101 (XX-209) and compound XX-050 were synthesized as previously described ([68]). CRT0066051 (Y-095) was also synthesized as previously described ([69]). […] CRT0066101 can also be obtained in larger quantities from Ximbio. Inhibitors were tested in in vitro PKD kinase assays and cellular assays on PANC1 cells as previously described ([48]). The selectivity of the three PKD inhibitors was determined against a panel of protein and lipid kinases by Eurofins and the MRC PPU International Centre for Kinase Profiling (http://www.kinase-screen.mrc.ac.uk), respectively. Each inhibitor was tested at a single concentration of 1 μM and at an ATP concentration equivalent to the Km for each kinase. Having shown that HRV infection appears to activate PKD, we went on to explore the influence of chemical inhibitors of PKD on HRV replication. The compound CRT0066101 is a specific and potent PKD inhibitor that has been used in studies exploring its potential as an anticancer target ([48], [51]). This inhibitor has a 50% inhibitory concentration (IC50) of 1 nM against purified PKD in biochemical assays and a 50% effective concentration (EC50) of 1 μM in a cell-based assay (Table 1). We pretreated HeLa cells with increasing concentrations of the drug for 1 h followed by infection with HRV16. Viral replication was subsequently measured at 6 hpi by quantitative real-time PCR (qRT-PCR) (Fig. 2A) and by Western blotting using an antibody against the viral nonstructural protein 2C (Fig. 2B). […] Furthermore, we tested two novel and structurally different PKD inhibitors (CRT0066051 and XX-050) (Table 1) and confirmed that they too inhibited HRV 2C expression although with different potencies (Fig. 2D). Kinase selectivity profiling of all three PKD inhibitors was performed against a panel of protein and lipid kinases at a drug concentration of 1 μM and at an ATP concentration equivalent to the Km of each kinase (see Table S1 in the supplemental material). […] Since PKD is known to be involved in regulating the architecture of the Golgi apparatus, we confirmed the pharmacodynamic effect of these inhibitors by demon
# [2] = biological target: T1, ARK5(h) (Homo sapiens, UniProt O60285)
# T1 construct: gene NUAK1
# Method: as §1
# [3] = biological target: Axl(h) (Homo sapiens, UniProt P30530)
# Method: as §1
# [4] = biological target: CHKB (Homo sapiens, UniProt Q9Y259)
# Method: as §1
# [5] = biological target: EGFR(T790M,L858R)(h) (Homo sapiens, UniProt P00533, L858R/T790M)
# Method: as §1
# [6] = biological target: T2, FAK(h) (Homo sapiens, UniProt Q05397)
# T2 construct: gene PTK2
# Method: as §1
# [7] = biological target: T3, LKB1(h) (Homo sapiens, UniProt Q15831)
# T3 construct: gene STK11
# Method: as §1
# [8] = biological target: T4, MAPK2(h) (Homo sapiens, UniProt P28482)
# T4 construct: gene MAPK1
# Method: as §1
# [9] = biological target: PAK2(h) (Homo sapiens, UniProt Q13177)
# Method: as §1
# [10] = biological target: T5, PDGFRα(D842V)(h) (Homo sapiens, UniProt P16234, D842V)
# T5 construct: gene PDGFRA
# Method: as §1
# [11] = biological target: PI4K2A (Homo sapiens, UniProt Q9BTU6)
# Method: as §1
# [12] = biological target: T6, PIK4A (Homo sapiens, UniProt P42356)
# T6 construct: gene PI4KA
# Method: as §1
# [13] = biological target: T7, Ron(h) (Homo sapiens, UniProt Q04912)
# T7 construct: gene MST1R
# Method: as §1
# [14] = biological target: T8, Rsk1(h) (Homo sapiens, UniProt Q15418)
# T8 construct: gene RPS6KA1
# Method: as §1
# [15] = biological target: T9, TAK1(h) (Homo sapiens, UniProt O43318)
# T9 construct: gene MAP3K7
# Method: as §1
# [16] = biological target: T10, TrkA(h) (Homo sapiens, UniProt P04629)
# T10 construct: gene NTRK1
# Method: as §1
# [17] = biological target: T11, p70S6K(h) (Homo sapiens, UniProt P23443)
# T11 construct: gene RPS6KB1
# Method: as §1
# T11 sequence (P23443 whole entry): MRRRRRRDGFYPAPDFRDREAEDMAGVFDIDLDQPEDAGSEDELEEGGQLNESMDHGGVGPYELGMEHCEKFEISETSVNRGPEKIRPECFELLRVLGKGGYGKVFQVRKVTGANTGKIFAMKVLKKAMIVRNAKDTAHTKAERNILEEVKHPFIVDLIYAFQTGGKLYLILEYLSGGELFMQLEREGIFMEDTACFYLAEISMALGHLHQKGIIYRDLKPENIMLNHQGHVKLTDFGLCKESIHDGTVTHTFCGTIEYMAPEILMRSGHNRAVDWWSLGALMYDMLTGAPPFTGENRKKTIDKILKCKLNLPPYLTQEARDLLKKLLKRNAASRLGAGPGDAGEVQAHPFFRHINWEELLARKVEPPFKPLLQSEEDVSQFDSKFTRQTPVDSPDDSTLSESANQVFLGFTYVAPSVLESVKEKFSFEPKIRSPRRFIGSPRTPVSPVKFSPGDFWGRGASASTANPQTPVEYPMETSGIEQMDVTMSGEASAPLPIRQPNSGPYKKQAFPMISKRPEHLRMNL
# T6 sequence (P42356 whole entry): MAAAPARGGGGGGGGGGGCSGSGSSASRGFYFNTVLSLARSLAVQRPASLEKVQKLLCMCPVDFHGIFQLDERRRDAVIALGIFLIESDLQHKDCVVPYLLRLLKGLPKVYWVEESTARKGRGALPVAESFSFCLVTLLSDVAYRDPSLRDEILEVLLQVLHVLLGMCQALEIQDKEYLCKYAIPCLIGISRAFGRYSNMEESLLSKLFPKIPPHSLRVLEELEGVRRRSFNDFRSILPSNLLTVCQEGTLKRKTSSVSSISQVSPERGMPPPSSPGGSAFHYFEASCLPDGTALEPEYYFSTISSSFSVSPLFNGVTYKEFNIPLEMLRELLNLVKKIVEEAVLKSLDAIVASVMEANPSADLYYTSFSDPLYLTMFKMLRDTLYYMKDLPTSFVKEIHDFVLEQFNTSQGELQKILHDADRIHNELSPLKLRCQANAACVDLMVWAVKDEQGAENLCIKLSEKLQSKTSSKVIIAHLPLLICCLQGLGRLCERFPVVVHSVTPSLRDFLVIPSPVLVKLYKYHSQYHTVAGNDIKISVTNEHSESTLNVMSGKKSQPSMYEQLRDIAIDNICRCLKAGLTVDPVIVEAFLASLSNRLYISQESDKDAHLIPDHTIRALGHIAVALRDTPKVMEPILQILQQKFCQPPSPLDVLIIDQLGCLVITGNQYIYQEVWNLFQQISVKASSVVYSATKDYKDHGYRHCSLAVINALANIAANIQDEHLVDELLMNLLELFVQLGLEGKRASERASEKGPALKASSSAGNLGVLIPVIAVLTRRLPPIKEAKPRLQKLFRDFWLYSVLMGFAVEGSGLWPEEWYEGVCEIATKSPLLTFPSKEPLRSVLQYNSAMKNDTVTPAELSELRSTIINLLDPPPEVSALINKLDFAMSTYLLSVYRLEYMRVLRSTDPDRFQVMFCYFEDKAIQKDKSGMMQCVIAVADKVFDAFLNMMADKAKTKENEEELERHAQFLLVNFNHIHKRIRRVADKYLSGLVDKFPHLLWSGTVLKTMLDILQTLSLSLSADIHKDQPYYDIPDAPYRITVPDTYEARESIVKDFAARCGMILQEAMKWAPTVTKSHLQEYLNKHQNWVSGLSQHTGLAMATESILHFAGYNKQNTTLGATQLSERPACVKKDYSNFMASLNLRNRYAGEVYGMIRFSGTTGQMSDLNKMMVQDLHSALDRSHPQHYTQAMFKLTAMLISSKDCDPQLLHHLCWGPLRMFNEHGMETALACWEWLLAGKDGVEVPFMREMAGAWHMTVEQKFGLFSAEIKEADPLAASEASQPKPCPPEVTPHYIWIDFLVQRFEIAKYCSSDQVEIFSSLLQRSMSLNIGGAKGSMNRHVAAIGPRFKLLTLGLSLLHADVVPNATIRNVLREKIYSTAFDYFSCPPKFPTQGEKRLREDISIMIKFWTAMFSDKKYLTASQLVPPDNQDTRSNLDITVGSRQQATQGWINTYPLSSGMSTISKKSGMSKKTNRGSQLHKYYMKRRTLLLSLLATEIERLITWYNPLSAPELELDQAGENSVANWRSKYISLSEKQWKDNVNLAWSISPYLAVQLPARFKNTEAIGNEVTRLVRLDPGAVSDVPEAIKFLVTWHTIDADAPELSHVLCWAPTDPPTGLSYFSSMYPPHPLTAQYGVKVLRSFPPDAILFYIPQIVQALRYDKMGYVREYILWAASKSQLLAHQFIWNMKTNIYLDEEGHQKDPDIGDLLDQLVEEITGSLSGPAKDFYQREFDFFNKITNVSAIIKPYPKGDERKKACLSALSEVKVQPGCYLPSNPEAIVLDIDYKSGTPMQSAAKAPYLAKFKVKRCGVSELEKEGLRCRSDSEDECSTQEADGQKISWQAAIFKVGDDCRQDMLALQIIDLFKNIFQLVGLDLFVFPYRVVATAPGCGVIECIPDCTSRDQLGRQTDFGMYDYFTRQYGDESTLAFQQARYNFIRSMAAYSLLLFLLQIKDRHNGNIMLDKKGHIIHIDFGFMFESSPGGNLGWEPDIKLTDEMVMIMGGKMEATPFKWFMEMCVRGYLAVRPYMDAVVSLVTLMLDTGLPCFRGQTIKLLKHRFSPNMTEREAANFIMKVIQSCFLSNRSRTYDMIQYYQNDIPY
# T9 sequence (O43318 whole entry): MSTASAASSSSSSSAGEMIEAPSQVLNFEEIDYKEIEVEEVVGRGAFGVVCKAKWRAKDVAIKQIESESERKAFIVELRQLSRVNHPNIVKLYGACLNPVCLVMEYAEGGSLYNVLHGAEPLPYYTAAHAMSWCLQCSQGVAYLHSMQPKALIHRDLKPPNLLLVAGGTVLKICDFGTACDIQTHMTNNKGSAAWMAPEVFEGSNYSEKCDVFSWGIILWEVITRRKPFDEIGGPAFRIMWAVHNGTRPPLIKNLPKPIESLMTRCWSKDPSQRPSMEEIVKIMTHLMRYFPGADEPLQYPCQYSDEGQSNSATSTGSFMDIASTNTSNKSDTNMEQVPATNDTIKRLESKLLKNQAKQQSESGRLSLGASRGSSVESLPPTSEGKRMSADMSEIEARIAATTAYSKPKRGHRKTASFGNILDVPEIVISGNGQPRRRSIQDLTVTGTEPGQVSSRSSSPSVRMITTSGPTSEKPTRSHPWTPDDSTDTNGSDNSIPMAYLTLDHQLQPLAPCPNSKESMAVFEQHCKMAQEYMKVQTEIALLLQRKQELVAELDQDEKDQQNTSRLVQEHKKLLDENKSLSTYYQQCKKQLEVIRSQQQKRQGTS
# EGFR(T790M,L858R)(h), sequence (P00533 whole entry T790M/L858R): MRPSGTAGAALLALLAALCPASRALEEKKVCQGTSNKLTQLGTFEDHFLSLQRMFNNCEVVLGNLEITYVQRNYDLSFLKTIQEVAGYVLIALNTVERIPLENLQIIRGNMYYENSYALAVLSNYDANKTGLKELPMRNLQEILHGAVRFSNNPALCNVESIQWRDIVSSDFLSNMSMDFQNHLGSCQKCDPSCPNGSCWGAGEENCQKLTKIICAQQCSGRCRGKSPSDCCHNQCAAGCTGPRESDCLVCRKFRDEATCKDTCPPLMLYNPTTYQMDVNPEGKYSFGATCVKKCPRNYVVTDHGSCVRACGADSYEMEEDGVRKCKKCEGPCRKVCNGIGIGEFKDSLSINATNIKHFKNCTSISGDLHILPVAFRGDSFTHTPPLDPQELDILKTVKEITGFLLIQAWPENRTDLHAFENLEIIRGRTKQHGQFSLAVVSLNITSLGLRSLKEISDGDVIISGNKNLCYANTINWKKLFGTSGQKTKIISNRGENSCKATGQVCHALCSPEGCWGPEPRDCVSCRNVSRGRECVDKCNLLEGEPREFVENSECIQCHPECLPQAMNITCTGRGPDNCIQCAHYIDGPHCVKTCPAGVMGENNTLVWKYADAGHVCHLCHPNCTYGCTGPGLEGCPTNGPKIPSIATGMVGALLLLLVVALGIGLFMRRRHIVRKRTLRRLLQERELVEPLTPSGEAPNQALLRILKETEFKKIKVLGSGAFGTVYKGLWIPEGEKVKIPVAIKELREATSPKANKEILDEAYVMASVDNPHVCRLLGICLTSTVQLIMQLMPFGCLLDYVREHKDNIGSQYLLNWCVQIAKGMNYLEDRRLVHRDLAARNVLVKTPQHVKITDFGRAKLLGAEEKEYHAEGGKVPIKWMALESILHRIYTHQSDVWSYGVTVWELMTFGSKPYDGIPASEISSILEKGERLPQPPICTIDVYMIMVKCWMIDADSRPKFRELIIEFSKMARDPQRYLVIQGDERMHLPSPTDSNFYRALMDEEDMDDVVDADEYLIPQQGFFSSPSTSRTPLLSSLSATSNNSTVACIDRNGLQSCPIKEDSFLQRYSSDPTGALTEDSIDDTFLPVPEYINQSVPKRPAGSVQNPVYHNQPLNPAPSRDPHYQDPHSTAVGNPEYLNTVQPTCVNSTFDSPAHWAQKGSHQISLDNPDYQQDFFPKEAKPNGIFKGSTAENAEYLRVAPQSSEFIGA
# T4 sequence (P28482 whole entry): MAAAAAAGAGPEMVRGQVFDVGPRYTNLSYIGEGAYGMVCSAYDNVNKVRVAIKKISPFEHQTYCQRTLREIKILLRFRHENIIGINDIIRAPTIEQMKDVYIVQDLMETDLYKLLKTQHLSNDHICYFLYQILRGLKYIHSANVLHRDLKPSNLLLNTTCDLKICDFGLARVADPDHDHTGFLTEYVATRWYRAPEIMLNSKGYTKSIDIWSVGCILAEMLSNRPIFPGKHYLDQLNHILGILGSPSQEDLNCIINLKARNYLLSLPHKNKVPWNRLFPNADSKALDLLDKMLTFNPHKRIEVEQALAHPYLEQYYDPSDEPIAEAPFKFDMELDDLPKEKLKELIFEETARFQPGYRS
compound,measurement,setting,value
CC[C@@H](N)CNc1ccnc(-c2cc(-c3cnn(C)c3)ccc2O)n1 [CRT0066101],inhibition at 1 µM,[1],3%
same,inhibition at 1 µM,[2],49%
same,inhibition at 1 µM,[3],39%
same,inhibition at 1 µM,[4],3%
same,inhibition at 1 µM,[5],-3%
same,inhibition at 1 µM,[6],-11%
same,inhibition at 1 µM,[7],-13%
same,inhibition at 1 µM,[8],-9%
same,inhibition at 1 µM,[9],9%
same,inhibition at 1 µM,[10],61%
same,inhibition at 1 µM,[11],4%
same,inhibition at 1 µM,[12],-11%
same,inhibition at 1 µM,[13],-8%
same,inhibition at 1 µM,[14],48%
same,inhibition at 1 µM,[15],-6%
same,inhibition at 1 µM,[16],23%
same,inhibition at 1 µM,[17],31%
